Experimental data: US4900672A, “Method for preservation of nitrile hydration activity” (Nitto Kagaku Kogyo Kabushiki Kaisha, priority 1986, dated 1990)
Like-named read-outs stand apart in the source and are kept apart here.

Biological target: T1, nitrile hydratase (Pseudomonas chlororaphis, UniProt P27763+P27764)
T1 sequence (P27764 1-200): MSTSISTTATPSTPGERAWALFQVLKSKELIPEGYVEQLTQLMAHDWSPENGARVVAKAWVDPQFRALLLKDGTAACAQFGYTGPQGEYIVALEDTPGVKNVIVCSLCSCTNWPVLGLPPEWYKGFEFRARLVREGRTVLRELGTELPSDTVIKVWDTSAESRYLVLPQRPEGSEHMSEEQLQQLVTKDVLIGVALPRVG
T1 sequence (P27763 1-220): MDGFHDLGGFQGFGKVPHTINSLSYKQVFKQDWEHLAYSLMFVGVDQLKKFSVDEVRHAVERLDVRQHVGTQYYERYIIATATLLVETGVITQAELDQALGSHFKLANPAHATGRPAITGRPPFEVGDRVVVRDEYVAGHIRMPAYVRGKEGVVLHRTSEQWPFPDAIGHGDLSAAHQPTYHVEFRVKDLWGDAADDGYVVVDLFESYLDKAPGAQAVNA
Experiment: Preservation of nitrile hydration activity of washed cell suspension left standing ice-cooled with stabilizer
Assay type: cell-based, Pseudomonas chlororaphis B23 (FERM BP-187)

[1] = 120 h; Table 3; 10 mg organic acid in 5 ml cell suspension, pH 6.0, left standing 5 days ice-cooled; no stabilizer: 43; read-out: % Residual Activity
[2] = 120 h; Table 2; 10 mg amide in 5 ml cell suspension, pH 6.5, left standing 5 days ice-cooled; no stabilizer: 42; read-out: % Residual Activity
[3] = 120 h, pH 6, read-out: % Residual Activity
[4] = 120 h, pH 6.5, read-out: % Residual Activity
[5] = 120 h; Table 1; 10 mg nitrile in 5 ml cell suspension, pH 6.5, left standing 5 days ice-cooled; no stabilizer: 42; read-out: % Residual Activity
[6] = 96 h, pH 7, read-out: % Residual Activity
[7] = 96 h; Table 4; pH 5.0, 25 mg stabilizer in 5 ml, 4 days ice-cooled; no stabilizer: 2; read-out: % Residual Activity
[8] = 96 h; Table 4; pH 6.0, 25 mg stabilizer in 5 ml, 4 days ice-cooled; no stabilizer: 41; read-out: % Residual Activity
[9] = 96 h; Table 4; pH 6.5, 25 mg stabilizer in 5 ml, 4 days ice-cooled; no stabilizer: 52; read-out: % Residual Activity
[10] = 96 h; Table 4; pH 8.0, 25 mg stabilizer in 5 ml, 4 days ice-cooled; no stabilizer: 26; read-out: % Residual Activity
[11] = Table 5; stabilizer concentration 0.01 g/l, pH 6.0, 3 days ice-cooled; no stabilizer (pH 6.5): 52; read-out: % Residual Activity
[12] = 96 h, pH 5.5, read-out: % Residual Activity
[13] = pH 6, read-out: % Residual Activity

O=C(O)C(O)CO (racemic) [DL-Glyceric acid]
activity at 10 mg [1]: 87%

CC(N)=O [Acetamide]
activity at 10 mg [2]: 67%

CC(=O)O [Acetic acid]
activity at 10 mg [3]: 77%

CC#N [Acetonitrile]
activity at 10 mg [4]: 71%

C=CC(N)=O [Acrylamide]
activity at 10 mg [2]: 73%

C=CC(=O)O [Acrylic acid]
activity at 10 mg [1]: 70%

C=CC#N [Acrylonitrile]
activity at 10 mg [5]: 71%

N#CCCCCC#N [Adiponitrile]
activity at 10 mg [5]: 84%

NC(=O)c1ccccc1 [Benzamide]
activity at 10 mg [2]: 65%

O=C(O)c1ccccc1 [Benzoic acid]
activity at 10 mg [1]: 68%

N#Cc1ccccc1 [Benzonitrile]
activity at 10 mg [5]: 70%

CCCCCC(=O)O [Caproic acid]
activity at 10 mg [1]: 83%

NC(=O)CCl [Chloroacetamide]
activity at 10 mg [4]: 71%

N#CCCl [Chloroacetonitrile]
activity at 10 mg [5]: 77%

O=C(O)CC(O)(CC(=O)O)C(=O)O [Citric acid]
activity at 10 mg [1]: 77%

N#CCC(N)=O [Cyanoacetamide]
activity at 10 mg [5]: 75%

N#CCC(=O)O [Cyanoacetic acid]
activity at 10 mg [5]: 69%

O=CO [Formic Acid]
activity at 10 mg [3]: 83%

O=C(O)/C=C/C(=O)O [Fumaric acid]
activity at 10 mg [3]: 82%

NCC(N)=O [Glycine amide]
activity at 10 mg [2]: 63%

N#CCN [Glycine nitrile]
activity at 10 mg [5]: 68%

O=C(O)CO [Glycolic acid]
activity at 10 mg [1]: 77%

O=CC(=O)O [Glyoxylic acid]
activity at 10 mg [1]: 88%

CC(C)C(N)=O [Isobutyramide]
activity at 25 mg [6]: 78% | activity at 25 mg [7]: 3% | activity at 25 mg (96 h; Table 4; pH 5.5, 25 mg stabilizer in 5 ml, 4 days ice-cooled; no stabilizer: 32; read-out: % Residual Activity): 100% | activity at 25 mg [8]: 100% | activity at 25 mg [9]: 87% | activity at 25 mg [10]: 52% | activity at 10 mg [4]: 99% | remaining activity at 10 µg/mL [11]: 82% | remaining activity at 100 µg/mL (Table 5; stabilizer concentration 0.1 g/l, pH 6.0, 3 days ice-cooled; read-out: % Residual Activity): 88% | remaining activity at 1000 µg/mL (Table 5; stabilizer concentration 1.0 g/l, pH 6.0, 3 days ice-cooled; read-out: % Residual Activity): 100% | remaining activity at 5000 µg/mL (Table 5; stabilizer concentration 5.0 g/l, pH 6.0, 3 days ice-cooled; read-out: % Residual Activity): 100% | remaining activity at 20000 µg/mL (Table 5; stabilizer concentration 20 g/l, pH 6.0, 3 days ice-cooled; read-out: % Residual Activity): 100% | remaining activity at 50000 µg/mL (Table 5; stabilizer concentration 50 g/l, pH 6.0, 3 days ice-cooled; read-out: % Residual Activity): 90%

CC(C)C(=O)O [Isobutyric acid]
activity at 25 mg (96 h, pH 5, read-out: % Residual Activity): 1% | activity at 25 mg [12]: 100% | activity at 25 mg (96 h, pH 6, read-out: % Residual Activity): 100% | activity at 25 mg (96 h, pH 6.5, read-out: % Residual Activity): 88% | activity at 25 mg [6]: 78% | activity at 25 mg (96 h, pH 8, read-out: % Residual Activity): 49% | activity at 10 mg [3]: 97% | remaining activity at 100 µg/mL [13]: 83% | remaining activity at 1000 µg/mL [13]: 100% | remaining activity at 5000 µg/mL [13]: 97% | remaining activity at 20000 µg/mL [13]: 95% | remaining activity at 50000 µg/mL [13]: 87% | remaining activity at 10 µg/mL (read-out: % Residual Activity): 80%

CC(C)C#N [Isobutyronitrile]
activity at 25 mg [12]: 98% | activity at 25 mg [7]: 5% | activity at 25 mg [8]: 97% | activity at 25 mg [9]: 85% | activity at 25 mg (96 h; Table 4; pH 7.0, 25 mg stabilizer in 5 ml, 4 days ice-cooled; no stabilizer: 43; read-out: % Residual Activity): 80% | activity at 25 mg [10]: 53% | activity at 10 mg [5]: 95% | remaining activity at 10 µg/mL [11]: 78% | remaining activity at 100 µg/mL [13]: 85% | remaining activity at 1000 µg/mL [13]: 98% | remaining activity at 5000 µg/mL [13]: 100% | remaining activity at 20000 µg/mL [13]: 91%

CC(O)C(N)=O (stereo not shown) [Lactamide]
activity at 10 mg [2]: 70%

CC(O)C#N (stereo not shown) [Lactonitrile]
activity at 10 mg [5]: 73%

O=C(O)CC(O)C(=O)O (stereo not shown) [Malic acid]
activity at 10 mg [1]: 81%

NC(=O)CC(N)=O [Malondiamide]
activity at 10 mg [2]: 66%

O=C(O)CC(=O)O [Malonic acid]
activity at 10 mg [1]: 63%

N#CCC#N [Malononitrile]
activity at 10 mg (120 h, pH 6.5; read-out: % Residual Activity): 69%

C=C(C)C(N)=O [Methacrylamide]
activity at 10 mg [2]: 79%

C=C(C)C(=O)O [Methacrylic acid]
activity at 10 mg [1]: 81%

C=C(C)C#N [Methacrylonitrile]
activity at 10 mg [5]: 80%

O=C(O)CCl [Monochloroacetic acid]
activity at 10 mg [1]: 70%

NC(=O)c1cccnc1 [Nicotinamide]
activity at 10 mg [2]: 59%

N#Cc1cccnc1 [Nicotinonitrile]
activity at 10 mg [5]: 73%

O=C(O)CC(=O)C(=O)O [Oxalacetic acid]
activity at 10 mg [1]: 83%

CCC(N)=O [Propionamide]
activity at 10 mg [2]: 93%

CCC(=O)O [Propionic acid]
activity at 10 mg [3]: 93%

CCC#N [Propionitrile]
activity at 10 mg [5]: 90%

NC(=O)CCC(N)=O [Succindiamide]
activity at 10 mg [2]: 68%

O=C(O)CCC(=O)O [Succinic acid]
activity at 10 mg [3]: 80%

N#CCCC#N [Succiononitrile]
activity at 10 mg [5]: 81%

CCCCC(=O)O [Valeric acid]
activity at 10 mg [3]: 84%

CCCC(N)=O [n-Butyramide]
activity at 10 mg [2]: 89%

CCCC#N [n-Butyronitrile]
activity at 10 mg [5]: 88%

CCCCCC(N)=O [n-Capronamide]
activity at 10 mg [2]: 88%

CCCCCC#N [n-Capronitrile]
activity at 10 mg [5]: 89%

CCCCC(N)=O [n-Valeramide]
activity at 10 mg [2]: 94%

CCCCC#N [n-Valeronitrile]
activity at 10 mg [5]: 93%

NCCC(N)=O [β-Aminopropionamide]
activity at 10 mg [2]: 68%

NCCC(=O)O [β-Aminopropionic acid]
activity at 10 mg [3]: 71%

N#CCCN [β-Aminopropionitrile]
activity at 10 mg [5]: 70%

NC(=O)CCCl [β-Chloropropionamide]
activity at 10 mg [2]: 71%

N#CCCCl [β-Chloropropionitrile]
activity at 10 mg [5]: 80%

NC(=O)CCO [β-Hydroxypropionamide]
activity at 10 mg [2]: 74%

N#CCCO [β-Hydroxypropionitrile]
activity at 10 mg [5]: 84%
